# Values of other authors in patent US20100209348A1, “METHODS FOR DETERMINING LIPOSOME BIOEQUIVALENCE” (Arondo Pharma, Inc., priority 2009, published 2010).
# Where a name gives a salt, the structure may show the parent alone.
# Settings: IV infusion up to 60 min, up to 60 mg/m^2 every 3 weeks (dose rate 20 mg/m^2/week)
smiles,measurement,value
"COc1cccc2c1C(=O)c1c(O)c3c(c(O)c1C2=O)C[C@@](O)(C(=O)CO)C[C@@H]3O[C@H]1C[C@H](N)[C@H](O)[C@H](C)O1 [doxorubicin, Doxorubicin HCl]",clinically significant PPE,does not typically cause clinically significant PPE
